Results taken from patent US20160317420A1, “METHOD OF IMPROVING THE APPEARANCE OF SKIN AND COMPOSITIONS THEREFOR” (The Procter & Gamble Company, priority 2015, published 2016).

Columns and labels:
[1] = tested on: glycation reaction between the gelatin and glyceraldehyde; assay: AGE Assay (in vitro suppression of AGE formation and yellowness reduction); format: biochemical; details: for % reduction in glycation rate vs. pos. ctrl.: 24-hr; for Δb* at 24-hr vs. 0-hour: blank-corrected yellowness; for ΔFLR at 24-hr vs. 0-hr: fluorescence 400/465 nm, 24 hours at 37° C.
Method: The anti-glycation ability of NR was determined as follows. Samples were prepared in a 96-well plate (3 replicates each) at a total volume of 250 μl/well. The test samples contained 112.5 μl of 2% w/v gelatin solution (commercially available from Sigma as Catalog # G1393-100 ML), 10 μl of 1 M glyceraldehyde (commercially available from Sigma as Catalog # G5001-1 G), 102.5 p1 Dulbecco's phosphate buffered saline (“DPBS”) (commercially available from Gibco's), and varying doses (0.1%, 0.5%, 1% and 5% w/v) of nicotinamide riboside chloride (“NR”) (available from Chromadex, Irvine, CA). The positive control contained 112.5 μl gelatin, 10 μl of 1 M glyceraldehyde and 127.5 μl DPBS. The negative control contained 112.5 μl gelatin and 137.5 μl DPBS. A 5% w/v niacinamide (“N”) composition was used for a benchmark comparison. The niacinamide sample contained the same amounts of gelatin, glyceraldehyde and DPBS as the 5% NR sample. The plate containing the test samples was placed in a CO2 incubator (e.g., THERMO SCIENTIFIC FORMA brand CO2 incubator available from Fisher Scientific, Waltham, Mass. or equivalent) and incubated for 24 hours at 37° C.
After 24 hours, the plate containing the test samples was removed from the incubator and placed in a SPECTRAMAX Plus brand spectrophotometer (available from Molecular Devices, Sunnyvale, Calif.). The spectrophotometer was set to detect fluorescence intensity (“FLR”) at 400/465 nm (ex/em). Glycation rate was determined by measuring FLR, at 0-hour (i.e., at the start of the test), 2-hour, 5-hour and 24-hour time points. The change in fluorescence intensity (“ΔFLR”) was determined by comparing the FLR of a well at a sampling time point to the 0-hour time point. To determine yellowness (i.e., b* value), a SPECTRAMAX Plus brand spectrophotometer was used to collect wavelength/absorbance pairs from 350 nm to 750 nm in 10 nm increments following the same time course as the FLR measurements (i.e., 0-hour, 2-hour, 5-hour and 24-hour). The wavelength/absorbance pairs were then converted to L*a*b* values by a computer using conversion software. The change in yellowness (“Ab*”) at a particular time point was determined by subtracting the b* value at the 0-hour time point from the b* value measured at the time point of interest. To correct for yellowness that is not due to the glycation reaction between the gelatin and glyceraldehyde, a blank well was set up for each treatment leg. The blank well contains every ingredient in the corresponding treatment leg except for the gelatin. The b* value of the blank well is subtracted from the b* value measured for each well before calculating the final Ab* value.

[2] = tested on: HMGB1 released from human neonatal keratinocytes exposed to CSE; assay: HMGB1 Assay (in vitro stress test, cigarette smoke extract); format: cell-based; details: 0.01% w/v + CSE; for AVG HMGB1 released: keratinocytes, 24 hours, ELISA; for effect on the amount of HMGB1 released by keratinocytes exposed to CSE, relative to CSE test medium: p<0.1 significant
Method: Human neonatal keratinocytes (available from Thermo) were placed in each well of four 12-well plates. Each well also contained 2 ml of EPILIFE brand keratinocyte medium. The plates were incubated at 37 ° C. in a CO2 incubator until cell confluency reached 70%. Once the cell confluency reached 70%, the keratinocyte medium in each well was replaced with the appropriate medium for the test (i.e., control medium, CSE test medium, niacinamide (“N”)+CSE test medium or nicotinamide riboside chloride (“NR”)+CSE test medium) to produce test samples. The resulting test samples were incubated for 24 hours at 37 ° C. in a CO2 incubator, after which the medium in each cell was removed and the HMGB 1 levels were determined using an ELISA kit from IBL according to the manufacturer's instructions.
The N and NR media were made by adding either niacinamide or nicotinamide riboside chloride (available from Chromadex, Irvine, Calif.) to EPILIFE brand keratinocyte medium to produce a 0.01% w/v solution. The cigarette smoke extract was made by suctioning a lit cigarette through a vacuum flask containing 60 mL of phosphate buffered saline (“PBS”). 4 CAMEL brand cigarettes with the filters cut off were used to create a batch of CSE. The CSE was diluted 1:20 using keratinocyte medium to create the CSE test medium. The N+CSE medium and NR+CSE medium were prepared by adding CSE test medium to final dilution of 1:6 (CSE:medium) and either N or NR to final dilution of 0.01% w/v. Unmodified keratinocyte medium was used as the control.

Compound | % reduction in glycation rate vs. pos. ctrl. ([1]; 5% w/v) [%] | Δb* at 24-hr vs. 0-hour ([1]; 5% w/v) | ΔFLR at 24-hr vs. 0-hr ([1]; 5% w/v) | AVG HMGB1 released [2] [ng/mL] | effect on the amount of HMGB1 released by keratinocytes exposed to CSE, relative to CSE test medium [2] | % reduction in glycation rate vs. pos. ctrl. ([1]; 0.1% w/v) [%] | Δb* at 24-hr vs. 0-hour ([1]; 0.1% w/v) | ΔFLR at 24-hr vs. 0-hr ([1]; 0.1% w/v) | % reduction in glycation rate vs. pos. ctrl. ([1]; 0.5% w/v) [%] | Δb* at 24-hr vs. 0-hour ([1]; 0.5% w/v) | ΔFLR at 24-hr vs. 0-hr ([1]; 0.5% w/v) | % reduction in glycation rate vs. pos. ctrl. ([1]; 1% w/v) [%] | Δb* at 24-hr vs. 0-hour ([1]; 1% w/v) | ΔFLR at 24-hr vs. 0-hr ([1]; 1% w/v)
NC(=O)c1cccnc1 [N, niacinamide, reference compound] | 33.2 | 9.19 | 2341 | 4.2790 | no significant effect |  |  |  |  |  |  |  |  | 
NC(=O)c1ccc[n+]([C@@H]2O[C@H](CO)[C@@H](O)[C@H]2O)c1 [NR, nicotinamide riboside chloride] | 98.8 | −2.09 | 41 | 2.0741 | significantly reduce | 22.2 | 9.44 | 2729 | 63 | −4.24 | 1294 | 85.5 | −11.00 | 507
